Literature values, collected in article PMC6182381, “Population Pharmacokinetics and Exposure-Response Relationships of Naldemedine” (Pharmaceutical Research, 2018).

Design: method as in earlier work
Conditions: cited from earlier work

N=C(N)c1ccccc1 [Benzamidine]
metabolite excreted in feces: ~20 % of the administered dose of naldemedine | metabolite excreted in urine: approximately 32 % of the administered dose of naldemedine
